pEC50: −log10 of the molar value.
System: genotype-1a variant with glutamine 30 changed to glutamate in the NS5A protein
Assay: HCV replicon cell-based assay, NS5A synergy with BMS-790052
Conditions: genotype 1a Q→E variant; test compound titrated in combination with NS5A-targeting compound (BMS-790052 fixed at 200 nM)
From the text: The NS5A synergistic inhibitory effect of test compounds can be determined using various amounts of an NS5A-targeting compound with titration of a second compound of interest. […] In one embodiment, the HCV genotype strain can be genotype 1a containing a change at amino acid 30 of the NS5A protein consisting of glutamine to glutamate. The test compound can be chosen from compounds listed above or from others present in the literature.
For `CC(C)[C@H](CC(=O)NCC12CC3CC(CC(C3)C1)C2)c1ncc(-c2ccc(-c3ccc(-c4cnc([C@@H](CC(=O)NCC56CC7CC(CC(C7)C5)C6)C(C)C)[nH]4)cc3)cc2)[nH]1` [MD-22], the “Fold Synergistic (1a-QE)” value was over 100 Fold. With `CC(C)[C@H](CC(=O)NCC1(c2ccccc2)CCCCC1)c1ncc(-c2ccc(-c3ccc(-c4cnc([C@@H](CC(=O)NCC5(c6ccccc6)CCCCC5)C(C)C)[nH]4)cc3)cc2)[nH]1` [MD-23] the “Fold Synergistic (1a-QE)” value was over 100 Fold. In the case of `CCN(CC)C(=O)CN(C)C(=O)C[C@H](c1ncc(-c2ccc(-c3ccc(-c4cnc([C@@H](CC(=O)N(C)CC(=O)N(CC)CC)C(C)C)[nH]4)cc3)cc2)[nH]1)C(C)C` [MD-24], the “Fold Synergistic (1a-QE)” value was over 10 Fold. In the case of `CC(C)[C@H](CC(=O)N(C)CC(=O)NC(C)(C)C)c1ncc(-c2ccc(-c3ccc(-c4cnc([C@@H](CC(=O)N(C)CC(=O)NC(C)(C)C)C(C)C)[nH]4)cc3)cc2)[nH]1` [MD-25], the “Fold Synergistic (1a-QE)” value was over 10 Fold. In the case of `CCCCN(C(=O)C[C@H](c1ncc(-c2ccc(-c3ccc(-c4cnc([C@@H](CC(=O)N(CCCC)C(C)C)C(C)C)[nH]4)cc3)cc2)[nH]1)C(C)C)C(C)C` [MD-26], the “Fold Synergistic (1a-QE)” value was over 10 Fold. With `CC(C)[C@H](CC(=O)N(CCN1CCOC1=O)CC(C)(C)C)c1ncc(-c2ccc(-c3ccc(-c4cnc([C@@H](CC(=O)N(CCN5CCOC5=O)CC(C)(C)C)C(C)C)[nH]4)cc3)cc2)[nH]1` [MD-27] the “Fold Synergistic (1a-QE)” value was over 10 Fold. For `CC(C)[C@H](CC(=O)NCC(C)(c1ccccc1)c1ccccc1)c1ncc(-c2ccc(-c3ccc(-c4cnc([C@@H](CC(=O)NCC(C)(c5ccccc5)c5ccccc5)C(C)C)[nH]4)cc3)cc2)[nH]1` [MD-28], the “Fold Synergistic (1a-QE)” value was over 100 Fold. With `CC(C)[C@H](CC(=O)N1CCN(c2ccccc2)C(=O)C1)c1ncc(-c2ccc(-c3ccc(-c4cnc([C@@H](CC(=O)N5CCN(c6ccccc6)C(=O)C5)C(C)C)[nH]4)cc3)cc2)[nH]1` [MD-29] the “Fold Synergistic (1a-QE)” value was under 10 Fold. For `CC(C)[C@H](CC(=O)N(C)CC(=O)N(C)C)c1ncc(-c2ccc(-c3ccc(-c4cnc([C@@H](CC(=O)N(C)CC(=O)N(C)C)C(C)C)[nH]4)cc3)cc2)[nH]1` [MD-30], the “Fold Synergistic (1a-QE)” value was under 10 Fold. With `CC(C)[C@H](CC(=O)NC1(C#N)CC1)c1ncc(-c2ccc(-c3ccc(-c4cnc([C@@H](CC(=O)NC5(C#N)CC5)C(C)C)[nH]4)cc3)cc2)[nH]1` [MD-31] the “Fold Synergistic (1a-QE)” value was under 10 Fold. For `CC(C)[C@H](CC(=O)NCC1(c2ccc(F)cc2)CCCC1)c1ncc(-c2ccc(-c3ccc(-c4cnc([C@@H](CC(=O)NCC5(c6ccc(F)cc6)CCCC5)C(C)C)[nH]4)cc3)cc2)[nH]1` [MD-32], the “Fold Synergistic (1a-QE)” value was over 100 Fold. In the case of `CC(C)[C@H](CC(=O)NC1(C#N)CC1)c1ncc(-c2ccc(-c3ccc(-c4cnc([C@@H](CC(=O)NC5(C(N)=O)CC5)C(C)C)[nH]4)cc3)cc2)[nH]1` [MD-33], the “Fold Synergistic (1a-QE)” value was under 10 Fold. For `CCO[C@H](CC(=O)NCC(C)C)C(=O)N[C@H](c1ncc(-c2ccc(-c3ccc(-c4cnc([C@@H](NC(=O)[C@@H](CC(=O)NCC(C)C)OCC)C(C)(C)C)[nH]4)cc3)cc2)[nH]1)C(C)(C)C` [MD-34], the “Fold Synergistic (1a-QE)” value was over 100 Fold. In the case of `CC(C)CNC(=O)C[C@H](c1ncc(-c2ccc(-c3ccc(-c4cnc([C@@H](CC(=O)NCC(C)C)C(C)C)[nH]4)cc3)cc2)[nH]1)C(C)C` [MD-35], the “Fold Synergistic (1a-QE)” value was over 10 Fold. In the case of `C[C@H](CC(=O)N1CCOCC1)c1ncc(-c2ccc(-c3ccc(-c4cnc([C@H](C)CC(=O)N5CCOCC5)[nH]4)cc3)cc2)[nH]1` [MD-37], the “Fold Synergistic (1a-QE)” value was over 10 Fold. For `C[C@H](CC(=O)NC1CCOCC1)c1ncc(-c2ccc(-c3ccc(-c4cnc([C@H](C)CC(=O)NC5CCOCC5)[nH]4)cc3)cc2)[nH]1` [MD-39], the “Fold Synergistic (1a-QE)” value was over 10 Fold. In the case of `CC(C)[C@H](CC(=O)NCC(C)(C)CO)c1ncc(-c2ccc(-c3ccc(-c4cnc([C@@H](CC(=O)NCC(C)(C)CO)C(C)C)[nH]4)cc3)cc2)[nH]1` [MD-42], the “Fold Synergistic (1a-QE)” value was over 10 Fold. With `CCCN(CC1CC1)C(=O)C[C@H](c1ncc(-c2ccc(-c3ccc(-c4cnc([C@@H](CC(=O)N(CCC)CC5CC5)C(C)C)[nH]4)cc3)cc2)[nH]1)C(C)C` [MD-44] the “Fold Synergistic (1a-QE)” value was over 10 Fold. With `CCC(CC)CNC(=O)C[C@H](c1ncc(-c2ccc(-c3ccc(-c4cnc([C@@H](CC(=O)NCC(CC)CC)C(C)C)[nH]4)cc3)cc2)[nH]1)C(C)C` [MD-45] the “Fold Synergistic (1a-QE)” value was over 100 Fold. In the case of `CC(C)[C@H](CC(=O)NCC(C)(C)c1ccccc1)c1ncc(-c2ccc(-c3ccc(-c4cnc([C@@H](CC(=O)NCC(C)(C)c5ccccc5)C(C)C)[nH]4)cc3)cc2)[nH]1` [MD-47], the “Fold Synergistic (1a-QE)” value was over 100 Fold. In the case of `CC(C)NC(=O)CN(C)C(=O)C[C@H](c1ncc(-c2ccc(-c3ccc(-c4cnc([C@@H](CC(=O)N(C)CC(=O)NC(C)C)C(C)C)[nH]4)cc3)cc2)[nH]1)C(C)C` [MD-48], the “Fold Synergistic (1a-QE)” value was under 10 Fold. For `CC(C)[C@H](CC(=O)N(C)CC(C)(C)C)c1ncc(-c2ccc(-c3ccc(-c4cnc([C@@H](CC(=O)N(C)CC(C)(C)C)C(C)C)[nH]4)cc3)cc2)[nH]1` [MD-49], the “Fold Synergistic (1a-QE)” value was over 10 Fold. For `CC(C)[C@H](CC(=O)N(C)C1CCOCC1)c1ncc(-c2ccc(-c3ccc(-c4cnc([C@@H](CC(=O)N(C)C5CCOCC5)C(C)C)[nH]4)cc3)cc2)[nH]1` [MD-50], the “Fold Synergistic (1a-QE)” value was under 10 Fold. In the case of `CC(C)[C@H](CC(=O)NCC(C)(C)C(N)=O)c1ncc(-c2ccc(-c3ccc(-c4cnc([C@@H](CC(=O)NCC(C)(C)C(N)=O)C(C)C)[nH]4)cc3)cc2)[nH]1` [MD-51], the “Fold Synergistic (1a-QE)” value was over 10 Fold. With `CC(C)[C@H](CC(=O)N(Cc1ccccc1)C(C)C)c1ncc(-c2ccc(-c3ccc(-c4cnc([C@@H](CC(=O)N(Cc5ccccc5)C(C)C)C(C)C)[nH]4)cc3)cc2)[nH]1` [MD-52] the “Fold Synergistic (1a-QE)” value was over 100 Fold. For `CC(C)[C@H](CC(=O)N1CCN(C)C(=O)C1)c1ncc(-c2ccc(-c3ccc(-c4cnc([C@@H](CC(=O)N5CCN(C)C(=O)C5)C(C)C)[nH]4)cc3)cc2)[nH]1` [MD-53], the “Fold Synergistic (1a-QE)” value was under 10 Fold. With `CC(C)[C@H](CC(=O)NCC1(O)CCC1)c1ncc(-c2ccc(-c3ccc(-c4cnc([C@@H](CC(=O)NCC5(O)CCC5)C(C)C)[nH]4)cc3)cc2)[nH]1` [MD-54] the “Fold Synergistic (1a-QE)” value was over 10 Fold. In the case of `CCOC(=O)N1CCN(C(=O)C[C@@H](CCC(F)(F)F)c2ncc(-c3ccc(-c4ccc(-c5cnc([C@H](CCC(F)(F)F)CC(=O)N6CCN(C(=O)OCC)CC6)[nH]5)cc4)cc3)[nH]2)CC1` [MD-58], the “Fold Synergistic (1a-QE)” value was over 10 Fold. With `O=C(C[C@@H](CCC(F)(F)F)c1ncc(-c2ccc(-c3ccc(-c4cnc([C@H](CCC(F)(F)F)CC(=O)NC5CCOCC5)[nH]4)cc3)cc2)[nH]1)NC1CCOCC1` [MD-61] the “Fold Synergistic (1a-QE)” value was under 10 Fold.

System: genotype-1a variant with glutamine 30 changed to glutamate in the NS5A protein
Assay: not given
Conditions: BMS-790052 titrated with P-55 fixed at 200 nM; genotype-1a Q30E variant; cited from earlier work
In the case of `COC(=O)N[C@H](C(=O)N1CCC[C@H]1c1nc(-c2ccc(-c3ccc(-c4c[nH]c([C@@H]5CCCN5C(=O)[C@@H](NC(=O)OC)C(C)C)n4)cc3)cc2)c[nH]1)C(C)C` [BMS-790052], the “reciprocal synergistic inhibitory effect for the combination” value is given as about 100 fold.

Same assay, conditions: P-55 titrated with BMS-790052 fixed at 200 nM; genotype-1a Q30E variant; cited from earlier work
In the case of `CC(C)CC(=O)N[C@H](c1ncc(-c2ccc(-c3ccc(-c4cnc([C@@H](NC(=O)CC(C)C)C(C)C)[nH]4)cc3)cc2)[nH]1)C(C)C` [Example P-55], the “synergistic inhibitory effect for the combination” value is listed as over 100 fold.

Same assay, conditions: genotype-1a Q30E NS5A variant replicon; compound alone; read-out: EC50, titrated singly; cited from earlier work
For `COC(=O)N[C@H](C(=O)N1CCC[C@H]1c1nc(-c2ccc(-c3ccc(-c4c[nH]c([C@@H]5CCCN5C(=O)[C@@H](NC(=O)OC)C(C)C)n4)cc3)cc2)c[nH]1)C(C)C` [BMS-790052], the pEC50 is listed as about 6.70. In the case of `CC(C)CC(=O)N[C@H](c1ncc(-c2ccc(-c3ccc(-c4cnc([C@@H](NC(=O)CC(C)C)C(C)C)[nH]4)cc3)cc2)[nH]1)C(C)C` [Example P-55], the pEC50 is given as under 6.70.

Same assay, conditions: genotype-1a Q30E variant; BMS-790052 fixed at 200 nM; read-out: EC50 of P-55 in the presence of a fixed amount of BMS-790052; cited from earlier work
In the case of `CC(C)CC(=O)N[C@H](c1ncc(-c2ccc(-c3ccc(-c4cnc([C@@H](NC(=O)CC(C)C)C(C)C)[nH]4)cc3)cc2)[nH]1)C(C)C` [Example P-55], the pEC50 is listed as about 8.70.

Same assay, conditions: genotype-1a Q30E variant; P-55 fixed at 200 nM; read-out: EC50 of BMS-790052 in the presence of a fixed amount of P-55; cited from earlier work
For `COC(=O)N[C@H](C(=O)N1CCC[C@H]1c1nc(-c2ccc(-c3ccc(-c4c[nH]c([C@@H]5CCCN5C(=O)[C@@H](NC(=O)OC)C(C)C)n4)cc3)cc2)c[nH]1)C(C)C` [BMS-790052], the pEC50 is listed as about 8.70.

— patent publication US9775831B2, “Combinations comprising biphenyl derivatives for use in the treatment of HCV” (BRISTOL-MYERS SQUIBB COMPANY, priority 2013, dated 2017)
